Experimental data as given in patent US9441003B2, “Membrane staining dyes containing phosphorescent transition metal polypyridine complexes” (City University of Hong Kong, priority 2014, dated 2016).

Assays:
Format in all cases: cell-based
HeLa cells = experiment: Confocal microscopy imaging of HeLa cells treated with complexes; conditions: 50 μM, 37° C., 1 h, excitation 405 nm
Experimental: (§1) Experiments were conducted to show the working of the staining dye of the present invention. HeLa and MCF-7 cells were grown on sterile glass coverslips in a 60-mm tissue culture dish and incubated at 37° C. under a 5% CO2 atmosphere for 48 h. The culture medium was removed and replaced with medium/DMSO (99:1, v/v) containing the complex at a concentration of 50 μM. After incubation for 1 h, the coverslips were washed with PBS (5 mL×3), and then mounted onto slides for measurements. Imaging was performed using a confocal microscope (Leica TCS SPE) with an excitation wavelength at 405 nm. The emission was measured using a long-pass filter at 532 nm. FIG. 6 illustrates experimental results with fluorescence laser-scanning confocal microscopy images of HeLa cells treated with complexes (50 μM) at 37° C. for 1 h. FIG. 7 illustrates experimental results with fluorescence laser-scanning confocal microscopy images of MCF-7 cells treated with complexes (50 μM) at 37° C. for 1 h.

MCF-7 cells [1] = experiment: Confocal microscopy imaging of MCF-7 cells treated with complexes; conditions: 50 μM, 37° C., 1 h, excitation 405 nm
Experimental: as §1

MCF-7 cells [2] = experiment: Co-staining with CellMask deep red plasma membrane stain; conditions: complex 50 μM 1 h, CellMask deep red plasma membrane stain 0.25 μL/ml 5 min
Experimental: Further experiments were conducted to co-stain cells with the complex [Ir(ppyCH2NH—C10)2(bpy-tris)]Cl and the CellMask™ deep red plasma membrane stain. […] Please see FIG. 8 showing fluorescence laser-scanning confocal microscopy images of MCF-7 cells treated with the bpy-tris complex (50 μM, 1 h) and the CellMask™ deep red plasma membrane stain (0.25 μL/ml, 5 min).

| Compound | cellular staining pattern (membrane staining / localization) (HeLa cells) | cellular staining pattern (membrane staining / localization) (MCF-7 cells [1]) | colocalization coefficient (MCF-7 cells [2]) [%] |
| --- | --- | --- | --- |
| Cc1ccnc(-c2cc(C(=O)O)ccn2)c1 [bpy-COOH] | much better membrane staining | much better membrane staining | – |
| [Ir(ppyCH2NH—C10)2(bpy-tris)]Cl | much better membrane staining | much better membrane staining | 92.9 |
